Assays:
[1] = tested on: human embryonic stem cell derived neural stem cells (NSCs); assay: Neural stem cell proliferation assay (neurogenesis assay, ATP levels by CellTiterGlo); assay type: cell-based; details: 96 h, compound concentration at which 150% activity of control (100%) is reached, ATP levels after 4 days incubation, dose response 8 μM to 8 nM
Description: Neural Stem Cell Proliferation Assay
Neurogenic properties of small molecules are determined based on the proliferation of human embryonic stem cell derived neural stem cells (NSCs) which were derived via a dual smad inhibition as previously described (Chambers, S. M., et al., Highly efficient neural conversion of human ES and iPS cells by dual inhibition of SMAD signaling, Nature biotechnology, 2009. 27(3): p. 275-80.)
Compounds respond is measured by the increase in cells based on ATP levels (Promega:CellTiterGlo®) after an incubation period of 4 days.
NSCs are thawed and expanded over 3 passages. On the 14th day, NSCs are seeded in Polyornithin/Laminin coated 384 well plates at a cell density of 21′000 cells/cm^2 in a media volume of 38 μl.
4 hours after cell seeding, compound solutions are added at a volume of 2 μl. Stock solutions of the compounds (water, 5% DMSO) are diluted to obtain a dose response (11 points, dilution factor is 2), ranging from 8 μM to 8 nM. Controls are run to consistently determine the neurogenic properties of the cells: • Negative (neutral) control is cell culture Media (final DMSO concentration: 0.25%). Positive controls are: • 1. cell culture Media+100 ng/ml FGF2 (final DMSO concentration: 0.1%) • 2. cell culture Media+20 ng/ml EGF (final DMSO concentration: 0.1%) • 3. cell culture Media+100 ng/ml Wnt3a (final DMSO concentration: 0.1%)
After 4 days incubation at 37° C., 5% CO2, the amount of ATP per well is quantified. The ATP concentration is proportional to the cell number. ATP is quantified by using the Promega CellTiterGlo® kit. The CellTiterGlo® reagents contain a cell lysis buffer, a thermo stable luciferase (UltraGlo™ recombinant luciferase), magnesium and luciferin. Luciferin reacts with ATP producing oxyluciferin, AMP and light. The luminescence signal is proportional to the ATP content.
The value of negative (neutral) control is determined for each assay plate by taking the average of 16 negative control wells. The neurogenic compound response is calculated for each compound as (compound/Negative Control)* 100.
The values of EC150 from the dose response curve are determined for each test compound. The EC150 is the compound concentration at which 150% activity of control (100%) is reached.

SMILES	melting point [°C]	EC (150% of control) [1] [µM]
Cc1ccc(-c2onc3ccc(-c4ccnn4-c4ccc(C)cc4)cc23)cc1 [Example 16, 3-p-Tolyl-5-(2-p-tolyl-2H-pyrazol-3-yl)-benzo[c]isoxazole]	190	0.055
Cc1ccc(-n2nccc2-c2ccc3noc(-c4ccc(C(F)(F)F)cc4)c3c2)cc1 [Example 17, 5-(2-p-Tolyl-2H-pyrazol-3-yl)-3-(4-trifluoromethyl-phenyl)-benzo[c]isoxazole]	173	1.13
Cc1ccc(-n2nccc2-c2ccc3noc(-c4ccc(Cl)cc4)c3c2)cc1 [Example 18, 3-(4-Chloro-phenyl)-5-(2-p-tolyl-2H-pyrazol-3-yl)-benzo[c]isoxazole]	204	0.093
COc1ccc(-c2onc3ccc(-c4ccnn4-c4ccc(C)cc4)cc23)cc1 [Example 19, 3-(4-Methoxy-phenyl)-5-(2-p-tolyl-2H-pyrazol-3-yl)-benzo[c]isoxazole]	165	0.045
COc1ccc(-n2nccc2-c2ccc3noc(-c4ccc(F)cc4)c3c2)cc1 [Example 20, 3-(4-Fluoro-phenyl)-5-[2-(4-methoxy-phenyl)-2H-pyrazol-3-yl]-benzo[c]isoxazole]	179	0.36
COc1ccc(-n2nccc2-c2ccc3noc(-c4cccc(F)c4)c3c2)cc1 [Example 21, 3-(3-Fluoro-phenyl)-5-[2-(4-methoxy-phenyl)-2H-pyrazol-3-yl]-benzo[c]isoxazole]	203	0.51
COc1ccc(-n2nccc2-c2ccc3noc(-c4ccc(C)cc4)c3c2)cc1 [Example 22, 5-[2-(4-Methoxy-phenyl)-2H-pyrazol-3-yl]-3-p-tolyl-benzo[c]isoxazole]	159	0.18
COc1ccc(-n2nccc2-c2ccc3noc(-c4ccc(Cl)cc4)c3c2)cc1 [Example 23, 3-(4-Chloro-phenyl)-5-[2-(4-methoxy-phenyl)-2H-pyrazol-3-yl]-benzo[c]isoxazole]	177	0.31
COc1ccc(-c2onc3ccc(-c4ccnn4-c4ccc(OC)cc4)cc23)cc1 [Example 24, 3-(4-Methoxy-phenyl)-5-[2-(4-methoxy-phenyl)-2H-pyrazol-3-yl]-benzo[c]isoxazole]	133	0.26

More lines, main results first:

melting point [°C]	SMILES	EC (150% of control) [1] [µM]
154	Fc1ccc(-c2onc3ccc(-c4ccnn4-c4ccc(Cl)cc4)cc23)cc1 [Example 25, 5-[2-(4-Chloro-phenyl)-2H-pyrazol-3-yl]-3-(4-fluoro-phenyl)-benzo[c]isoxazole]	0.32
184	Fc1cccc(-c2onc3ccc(-c4ccnn4-c4ccc(Cl)cc4)cc23)c1 [Example 26, 5-[2-(4-Chloro-phenyl)-2H-pyrazol-3-yl]-3-(3-fluoro-phenyl)-benzo[c]isoxazole]	1.3
222	Clc1ccc(-c2onc3ccc(-c4ccnn4-c4ccc(Cl)cc4)cc23)cc1 [Example 27, 3-(4-Chloro-phenyl)-5-[2-(4-chloro-phenyl)-2H-pyrazol-3-yl]-benzo[c]isoxazole]	0.46
149	Fc1ccc(-c2onc3ccc(-c4ccnn4-c4ccc(F)cc4F)cc23)cc1 [Example 28, 5-[2-(2,4-Difluoro-phenyl)-2H-pyrazol-3-yl]-3-(4-fluoro-phenyl)-benzo[c]isoxazole]	0.07
165	Fc1cccc(-c2onc3ccc(-c4ccnn4-c4ccc(F)cc4F)cc23)c1 [Example 29, 5-[2-(2,4-Difluoro-phenyl)-2H-pyrazol-3-yl]-3-(3-fluoro-phenyl)-benzo[c]isoxazole]	0.25
147	Cc1ccc(-c2onc3ccc(-c4ccnn4-c4ccc(F)cc4F)cc23)cc1 [Example 30, 5-[2-(2,4-Difluoro-phenyl)-2H-pyrazol-3-yl]-3-p-tolyl-benzo[c]isoxazole]	0.04

— patent US9440962B2, “Benzisoxazoles” (Hoffmann-La Roche Inc., priority 2012, dated 2016)
